Values quoted from earlier work as cited in patent publication US20060135507A1, “Therapeutic agent for overactive bladder involved in aging” (priority 2004, published 2006).

Key:
[1] = test system: human with overactive bladder caused by cerebrovascular disease
[2] = test system: rat with overactive bladder caused by cerebrovascular disease

COc1ccc(C(=O)N2CCCC2=O)cc1 [Aniracetam]
micturition reflex [1]: suppression of micturition reflex is observed
micturition reflex [2]: suppression of micturition reflex is observed
